Experimental data reported in patent US9943504B2, “Arginine methyltransferase inhibitors and uses thereof” (Epizyme, Inc., priority 2013, dated 2018).

System: mono-methyl arginine in RKO cells
Assay: RKO Methylation Assay (In Cell Western)
Type: cell-based
Conditions: 72 hours, percent activation
From the text: RKO adherent cells were purchased from ATCC (American Type Culture Collection), Manassas, Va., USA. DMEM/Glutamax medium, penicillin-streptomycin, heat inactivated fetal bovine serum, 0.05% trypsin and D-PBS were purchased from Life Technologies, Grand Island, N.Y., USA. Odyssey blocking buffer, 800CW goat anti-rabbit IgG (H+L) antibody, and Licor Odyssey infrared scanner were purchased from Licor Biosciences, Lincoln, Nebr., USA. Mono-methyl arginine antibody was purchased from Cell Signaling Technology, Danvers, Mass., USA. Methanol was purchased from VWR, Franklin, Mass., USA. 10% Tween 20 was purchased from KPL, Inc., Gaithersburg, Md., USA. DRAQ5 was purchased from Biostatus Limited, Leicestershire, UK.
RKO adherent cells were maintained in growth medium (DMEM/Glutamax medium supplemented with 10% v/v heat inactivated fetal bovine serum and 100 units/mL penicillin-streptomycin) and cultured at 37° C. under 5% CO2.
Cell Treatment, in Cell Western (ICW) for Detection of Mono-Methyl Arginine and DNA Content.
RKO cells were seeded in assay medium at a concentration of 20,000 cells per mL to a poly-D-lysine coated 384 well culture plate (BD Biosciences 356697) with 50 μL per well. Compound (100 nL) from a 96-well source plate was added directly to 384 well cell plate. Plates were incubated at 37° C., 5% CO2 for 72 hours. After three days of incubation, plates were brought to room temperature outside of the incubator for ten minutes and blotted on paper towels to remove cell media. 50 μL of ice cold 100% methanol was added directly to each well and incubated for 30 min at room temperature. After 30 min, plates were transferred to a Biotek EL406 plate washer and washed 2 times with 100 μL per well of wash buffer (1×PBS). Next 60 μL per well of Odyssey blocking buffer (Odyssey Buffer with 0.1% Tween 20 (v/v)) were added to each plate and incubated 1 hour at room temperature. Blocking buffer was removed and 20 μL per well of primary antibody was added (mono-methyl arginine diluted 1:200 in Odyssey buffer with 0.1% Tween 20 (v/v)) and plates were incubated overnight (16 hours) at 4° C. Plates were washed 5 times with 100 μL per well of wash buffer. Next 20 μL per well of secondary antibody was added (1:200 800CW goat anti-rabbit IgG (H+L) antibody, 1:1000 DRAQ5 (Biostatus limited) in Odyssey buffer with 0.1% Tween 20 (v/v)) and incubated for 1 hour at room temperature. The plates were washed 5 times with 100 μL per well wash buffer then 2 times with 100 μL per well of water. Plates were allowed to dry at room temperature then imaged on the Licor Odyssey machine which measures integrated intensity at 700 nm and 800 nm wavelengths. Both 700 and 800 channels were scanned.
First, the ratio for each well was determined by:
Each plate included fourteen control wells of DMSO only treatment (minimum activation) as well as fourteen control wells for maximum activation treated with 20 μM of a reference compound. The average of the ratio values for each control type was calculated and used to determine the percent activation for each test well in the plate. Reference compound was serially diluted three-fold in DMSO for a total of nine test concentrations, beginning at 20 μM. Percent activation was determined and EC30 curves were generated using triplicate wells per concentration of compound.

SMILES | RGG ICW EC30
CNCCN(C)Cc1n[nH]c2ccc(OCc3cc[nH]n3)cc12 [Compound 17] | C (“C” indicates an EC30 ≥ 12.01 μM)
CNCCN(C)Cc1n[nH]c2ccc(OC3CCCC3)cc12 [Compound 11] | A (“A” indicates an EC30 ≤ 3.00 μM)
CNCCN(C)Cc1nn(C)c2ccc(OCC(C)C)cc12 [Compound 3, N^1-((5-iso-butoxy-1-methyl-1H-indazol-3-yl)methyl)-N^1,N^2-dimethylethane-1,2-diamine] | C (“C” indicates an EC30 ≥ 12.01 μM)
CNCCN(C)Cc1n[nH]c2ccc(OC(C)C(C)C)cc12 (centres unmarked) [Compound 4] | A (“A” indicates an EC30 ≤ 3.00 μM)
CNCCN(C)Cc1n[nH]c2ccc(OC(C)Cc3ccccc3)cc12 (centres unmarked) [Compound 9] | B (“B” indicates an EC30 of 3.01-12.00 μM)
CC(C)COc1ccc2[nH]nc(CN(C)CCN)c2c1 [Compound 2, N^1-((5-iso-butoxy-1H-indazol-3-yl)methyl)-N^1-methylethane-1,2-diamine] | B (“B” indicates an EC30 of 3.01-12.00 μM)
CNCCN(C)Cc1n[nH]c2ccc(OCCc3ccccc3)cc12 [Compound 7] | A (“A” indicates an EC30 ≤ 3.00 μM)
CNCCN(C)Cc1n[nH]c2ccc(OCCOC)cc12 [Compound 5, N^1-((5-(2-methoxyethoxy)-1H-indazol-3-yl)methyl)-N^1,N^2-dimethylethane-1,2-diamine] | B (“B” indicates an EC30 of 3.01-12.00 μM)
CNCCN(C)Cc1n[nH]c2ccc(OCc3ccc(C#N)cc3)cc12 [Compound 13] | B (“B” indicates an EC30 of 3.01-12.00 μM)
CNCCN(C)Cc1n[nH]c2ccc(Oc3ccccc3)cc12 [Compound 10, N^1,N^2-dimethyl-N^1-((5-phenoxy-1H-indazol-3-yl)methyl)ethane-1,2-diamine] | B (“B” indicates an EC30 of 3.01-12.00 μM)
CNCCN(C)Cc1n[nH]c2ccc(OCc3ccccn3)cc12 [Compound 12] | B (“B” indicates an EC30 of 3.01-12.00 μM)
CNCCN(C)Cc1n[nH]c2ccc(OCc3cccc(C#N)c3)cc12 [Compound 14] | B (“B” indicates an EC30 of 3.01-12.00 μM)
CNCCN(C)Cc1n[nH]c2ccc(OCCCOC)cc12 [Compound 6] | A (“A” indicates an EC30 ≤ 3.00 μM)
CNCCN(C)Cc1n[nH]c2ccc(OCCC(C)C)cc12 [Compound 8] | A (“A” indicates an EC30 ≤ 3.00 μM)
